{
  "source": "patent US7220784B2",
  "about": "“Substituted stilbenes and their reactions” (priority 2000, dated 2007)",
  "key": {"K562 cells": {"test_system": "K562 cells", "test": "In situ ultra violet irradiation of dosed K562 cells, IC50", "assay_type": "cell-based, human", "conditions": "Homo sapiens, read-out: IC50 K562"}, "K562": {"test_system": "K562", "test": "IC50 of aliquots after ex situ irradiation in a photochemical reactor", "conditions": "Homo sapiens, K562, light or radiation study, read-out: IC50 (K562) (nM)"}, "[1]": {"test_system": "P388 murine leukaemia cell line", "test": "Cytotoxicity/growth inhibition assay (MTT), P388", "assay_type": "cell-based", "conditions": "MTT", "in_short": "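Growth inhibition of P388 murine and K562 human leukaemia cells measured by MTT assay.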"}, "[2]": {"test_system": "H460 human lung xenograft", "test": "Tumour damage in H460 human lung xenograft grown subcutaneously", "assay_type": "in vivo", "conditions": "0.75×MTD, i.p., twenty four hours following injection", "protocol": "The effect of compounds 97–64H and 97–96 (quinone compound) was tested on H460 human lung xenograft grown subcutaneously by injecting equitoxic doses of the compounds (0.75×MTD)."}, "[3]": {"test_system": "colchicine binding site on tubulin", "test": "Competition for the colchicine binding site on tubulin; further: test concentration or dose not given here"}},
  "note": "Values joined by “and” are separate entries in the source; they are usually repeats but may differ in a detail not shown here. Equal values may be shown once. Read-outs that look alike come from different tables or passages of the source.",
  "data": [
    {"smiles": "COc1ccc(/C=C/c2cc(OC)c(OC)c(OC)c2)cc1O", "note": "[trans-CA-4, trans-combretastatin A-4]", "values": [
      {"measurement": "IC50", "setting": "K562 cells; K562, 0 h, in situ UV 0 mins (Table 6)", "result": 1200, "unit": "nM"},
      {"measurement": "IC50", "setting": "K562 cells; K562, 1 min, in situ UV 1 mins (Table 6)", "result": 3.6, "unit": "nM"},
      {"measurement": "IC50", "setting": "K562 cells; K562, 2 min, in situ UV 2 mins (Table 6)", "result": 2.9, "unit": "nM"},
      {"measurement": "IC50", "setting": "K562 cells; K562, 0.05 h, in situ UV 3 mins (Table 6)", "result": 1.7, "unit": "nM"},
      {"measurement": "IC50", "setting": "K562 cells; K562, 4 min, in situ UV 4 mins (Table 6)", "result": 4.4, "unit": "nM"},
      {"measurement": "IC50", "setting": "K562 cells; K562, 5 min, in situ UV 5 mins (Table 6)", "result": 2.7, "unit": "nM"},
      {"measurement": "IC50", "setting": "K562 cells; K562, 0.1 h, in situ UV 6 mins (Table 6)", "result": 2.9, "unit": "nM"},
      {"measurement": "IC50", "setting": "K562 cells; K562, 7 min, in situ UV 7 mins (Table 6)", "result": 1.9, "unit": "nM"},
      {"measurement": "IC50", "setting": "K562 cells; K562, 8 min, in situ UV 8 mins (Table 6)", "result": 3, "unit": "nM"},
      {"measurement": "IC50", "setting": "K562 cells; K562, 0.15 h, in situ UV 9 mins (Table 6)", "result": 2.5, "unit": "nM"},
      {"measurement": "IC50", "setting": "K562 cells; K562, 12.5 min, in situ UV 12.5 mins (Table 6)", "result": 2.4, "unit": "nM"},
      {"measurement": "IC50", "setting": "K562 cells; K562, 0.25 h, in situ UV 15.0 mins (Table 6)", "result": 2, "unit": "nM"},
      {"measurement": "IC50", "setting": "K562 cells; K562, 17.5 min, in situ UV 17.5 mins (Table 6)", "result": 1.7, "unit": "nM"},
      {"measurement": "IC50", "setting": "K562 cells; K562, 20 min, in situ UV 20.0 mins (Table 6)", "result": 2.7, "unit": "nM"},
      {"measurement": "IC50", "setting": "K562 cells; K562, in situ UV, repeated experiment, 0 secs (Table 7)", "result": 580, "unit": "nM"},
      {"measurement": "IC50", "setting": "K562 cells; K562, in situ UV, repeated experiment, 5 secs (Table 7)", "result": 35, "unit": "nM"},
      {"measurement": "IC50", "setting": "K562 cells; K562, in situ UV, repeated experiment, 10 secs (Table 7)", "result": 40, "unit": "nM"},
      {"measurement": "IC50", "setting": "K562 cells; K562, in situ UV, repeated experiment, 15 secs (Table 7)", "result": 20, "unit": "nM"},
      {"measurement": "IC50", "setting": "K562 cells; K562, in situ UV, repeated experiment, 20 secs (Table 7)", "result": 18, "unit": "nM"},
      {"measurement": "IC50", "setting": "K562 cells; K562, in situ UV, repeated experiment, 25 secs (Table 7)", "result": 17, "unit": "nM"},
      {"measurement": "IC50", "setting": "K562 cells; K562, in situ UV, repeated experiment, 30 secs (Table 7)", "result": 15, "unit": "nM"},
      {"measurement": "IC50", "setting": "K562 cells; K562, in situ UV, repeated experiment, 35 secs (Table 7)", "result": 11, "unit": "nM"},
      {"measurement": "IC50", "setting": "K562 cells; K562, in situ UV, repeated experiment, 40 secs (Table 7)", "result": 11, "unit": "nM"},
      {"measurement": "IC50", "setting": "K562 cells; K562, in situ UV, repeated experiment, 45 secs (Table 7)", "result": 9, "unit": "nM"},
      {"measurement": "IC50", "setting": "K562 cells; K562, in situ UV, repeated experiment, 50 secs (Table 7)", "result": 9, "unit": "nM"},
      {"measurement": "IC50", "setting": "K562 cells; K562, in situ UV, repeated experiment, 55 secs (Table 7)", "result": 9, "unit": "nM"},
      {"measurement": "IC50", "setting": "K562 cells; K562, in situ UV, repeated experiment, 60 secs (Table 7)", "result": 8, "unit": "nM"},
      {"measurement": "IC50", "setting": "K562; 0 h", "result": 4000, "unit": "nM"},
      {"measurement": "IC50", "setting": "K562; 0.5 min", "result": 310, "unit": "nM"},
      {"measurement": "IC50", "setting": "K562; 1 min", "result": 530, "unit": "nM"},
      {"measurement": "IC50", "setting": "K562; 0.025 h", "result": 50, "unit": "nM"},
      {"measurement": "IC50", "setting": "K562; 2 min", "result": 20, "unit": "nM"},
      {"measurement": "IC50", "setting": "K562; 0.05 h", "result": 12, "unit": "nM"},
      {"measurement": "IC50", "setting": "K562; 4 min", "result": 9, "unit": "nM"},
      {"measurement": "IC50", "setting": "K562; 5 min", "result": 10, "unit": "nM"},
      {"measurement": "IC50", "setting": "K562; 0.125 h", "result": 3, "unit": "nM"},
      {"measurement": "IC50", "setting": "K562; 10 min", "result": 6, "unit": "nM"},
      {"measurement": "IC50", "setting": "K562; 12.5 min", "result": 4, "unit": "nM"},
      {"measurement": "IC50", "setting": "K562; 0.25 h", "result": 1, "unit": "nM"},
      {"measurement": "IC50", "setting": "K562; 17.5 min", "result": 3, "unit": "nM"},
      {"measurement": "IC50", "setting": "K562; 20 min", "result": 2, "unit": "nM"}
    ]},
    {"smiles": "COc1ccc(C=Cc2cc(OC)c(OC)c(OC)c2)cc1F", "note": "[Compound 97-64H]", "values": [
      {"measurement": "IC50", "setting": "[1]", "result": 0.489, "unit": "nM"},
      {"measurement": "tumour damage", "setting": "[2]", "result": "extensive damage to the tumours"},
      {"measurement": "Colchicine % Inhibition", "setting": "[3]", "result": "79% and 70%"}
    ]}
  ]
}
